Test results from US6737383B1, “Herbicidal oxadiazolidines” (priority 1999, dated 2004).

Key:
corn = assay: Test B pre/postemergence corn; assay type: in vivo, Zea mays
Summary of the method: (§1)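 Herbicidal effect was estimated by eye on a ten-point control scale after plants spent twelve to sixteen days in a greenhouse following soil or foliar treatment. Foliar sprays targeted plants at one to four leaves; all doses were formulated in a non-phytotoxic solvent with surfactant.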

bermuda-grass = assay: Test D bermudagrass; assay type: in vivo, Cynodon dactylon; settings: Rate 500 g/ha; Preemergence; 0 to 100 scale
Summary of the method: (§2)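 Values are visual plant-response ratings (0 no injury, 100 complete control) recorded 14 to 21 days after herbicide treatment, using a non-phytotoxic solvent mixture containing surfactant. Preemergence applications went to the surface of pots holding freshly sown seed in sandy loam.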

purple nutsedge = assay: Test D purple nutsedge; assay type: in vivo, Cyperus rotundus; settings: Rate 500 g/ha; Preemergence; 0 to 100 scale
Summary of the method: as §2

common groundsel = assay: Test D common groundsel; assay type: in vivo, Senecio vulgaris; settings: Rate 500 g/ha; Preemergence; 0 to 100 scale
Summary of the method: as §2

pitted morningglory = assay: Test D pitted morningglory; assay type: in vivo, Ipomoea lacunosa; settings: Rate 500 g/ha; Preemergence; 0 to 100 scale
Summary of the method: as §2

sugar beet = assay: Test B pre/postemergence sugar beet; assay type: in vivo, Beta vulgaris
Summary of the method: as §1

crabgrass = assay: Test B pre/postemergence crabgrass; assay type: in vivo, Digitaria sanguinalis
Summary of the method: as §1

goosegrass = assay: Test D goosegrass; assay type: in vivo, Eleusine indica; settings: Rate 500 g/ha; Preemergence; 0 to 100 scale
Summary of the method: as §2

surinam grass = assay: Test D surinam grass; assay type: in vivo, Brachiaria decumbens; settings: Rate 500 g/ha; Preemergence; 0 to 100 scale
Source text: Seeds, tubers, or plant parts of Alexandergrass (Brachiaria plantaginea), bermuda-grass (Cynodon dactylon), common pursiane (Portulaca oleracea), common ragweed (Ambrosia elatior), common groundsel (Senecio vulgaris), dallisgrass (Paspalum dilatatum), goosegrass (Eleusine indica), guineagrass (Panicum maximum), itchgrass (Rottboellia exaltata), Johnson grass (Sorghum halepense), large crabgrass (Digitaria sanguinalis), pitted morningglory (Ipomoea lacunosa), purple nutsedge (Cyperus rotundus), sandbur (Cenchrus echinatus), sourgrass (Trichachne insularis), Spanishneedles (Bidens bipinnata), surinam grass (Brachiaria decumbens) and tall mallow (Malva sylvestris) were planted into greenhouse pots of flats containing greenhouse planting medium. Plant species were grown in separate pots or individual compartments. Preemergence applications were made within one day of planting the seed or plant part.
Test chemicals were formulated in a non-phytotoxic solvent mixture which included a surfactant and applied preemergence to the surface of the pot containing seeds in a sandy loam soil. Untreated control pots and treated pots were placed in the greenhouse for growth and visually evaluated for injury 14 to 21 days after herbicide application. Plant response ratings, summarized in Table C, are based on a 0 to 100 scale where 0 is no injury and 100 is complete control. A dash (−) response means no test result.

rice = assay: Test B flood test rice; assay type: in vivo, Oryza sativa
Summary of the method: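 Plants were grown to the 2-leaf stage before treatment with test chemical, then held in a greenhouse for twelve to sixteen days. Injury was visually rated against untreated controls on a 0–10 scale, where 0 is no effect and 10 is complete control.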

Italian ryegrass = assay: Test E Italian ryegrass; assay type: in vivo, Lolium multiflorum; settings: Preemergence
winter wheat [1] = assay: Test E winter wheat; assay type: in vivo, Triticum aestivum; settings: Preemergence
blackgrass = assay: Test E blackgrass; assay type: in vivo, Alopecurus myosuroides; settings: Preemergence
green foxtail = assay: Test E green foxtail; assay type: in vivo, Setaria viridis; settings: Preemergence
winter wheat [2] = assay: Test E winter wheat; assay type: in vivo, Triticum aestivum; settings: Postemergence
Summary of the method: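 Visually scored herbicidal effect relative to untreated plants, taken ~21 to 28 days post-application; compound in solvent with surfactant; postemergence sprays at the 1- to 4-leaf stage.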

wild oat = assay: Test E wild oat; assay type: in vivo, Avena fatua; settings: Preemergence
winter barley = assay: Test E winter barley; assay type: in vivo, Hordeum vulgare; settings: Preemergence
[3] = Postemergence, Rate 62 g/ha, scale 0 to 10, 0 is no effect, 10 is complete control
[4] = Postemergence, Rate 250 g/ha, scale 0 to 10, 0 no effect, 10 complete control
[5] = Preemergence, Rate 62 g/ha, scale 0 to 10, 0 is no effect, 10 is complete control
[6] = Preemergence, Rate 125 g/ha, scale 0 to 10 (0 no effect, 10 complete control)
[7] = Preemergence, Rate 250 g/ha, scale of 0 to 10 where 0 is no effect and 10 is complete control
[8] = Preemergence, Rate 500 g/ha, scale 0 (no effect) to 10 (complete control)
[9] = Rate 125 g/ha, Postemergence, scale 0 to 10, 0 no effect, 10 complete control
[10] = Rate 500 g/ha, Postemergence, 0 to 10 scale (0 no effect, 10 complete control)
[11] = Preemergence, Rate 62 g/ha, scale of 0 to 10 where 0 is no effect and 10 is complete control
[12] = Preemergence, Rate 500 g/ha, scale of 0 to 10 where 0 is no effect and 10 is complete control
[13] = Rate 62 g/ha, Postemergence, scale 0 to 10, 0 no effect, 10 complete control
[14] = Rate 125 g/ha, Postemergence, scale of 0 to 10 where 0 is no effect and 10 is complete control
[15] = Rate 250 g/ha, Postemergence, scale of 0 to 10 where 0 is no effect and 10 is complete control
[16] = Rate 125 g/ha, 0 to 100 scale (0 no effect, 100 complete control)
[17] = Rate 125 g/ha, 0 to 100 scale, 0 is no effect, 100 is complete control
[18] = Rate 62 g/ha, headed Pre-emergence (flood test species), scale 0 to 10 (0 no effect, 10 complete control)
[19] = Rate 125 g/ha, Pre-emergence, flood test species, scale 0 to 10 where 0 is no effect and 10 is complete control
[20] = Rate 250 g/ha, Pre-emergence, flood-test species, scale 0 to 10, 0 is no effect, 10 is complete control
[21] = Preemergence, Rate 31 g/ha, visual rating, scale 0 to 10 (0 no effect, 10 complete control)
[22] = Rate 31 g/ha, Postemergence, scale 0 to 10
[23] = Rate 125 g/ha, Preemergence, scale of 0 to 10 where 0 is no effect and 10 is complete control
[24] = Rate 500 g/ha, 0 to 100 scale (0 no effect, 100 complete control)
[25] = Rate 1000 g/ha, 0 to 100 scale, 0 no effect, 100 complete control

Cc1ccccc1-n1c(=O)on(C(=O)N(c2ccccc2)C(C)C)c1=O [Compound 36]
8: Plant response rating, Crabgrass (crabgrass; [5]) | Crabgrass plant response rating (crabgrass; [10])
85: Plant response rating Surinam grass (surinam grass)
0: Corn plant response rating (corn; [3]) | Corn plant response rating (corn; [4]) | Plant response rating, Corn (corn; [5]) | Plant response rating, Corn (corn; [6]) | Plant response rating, Corn (corn; [7]) | Corn plant response rating (corn; [8]) | Corn plant response rating (corn; [9]) | Corn plant response rating (corn; [10]) | Plant response rating, Purple nutsedge (purple nutsedge) | Plant response rating, P. morninglory (pitted morningglory) | Sugarbeets plant response rating (sugar beet; [3]) | Sugarbeets plant response rating (sugar beet; [4]) | Plant response rating, Sugarbeets (sugar beet; [5]) | Plant response rating, Sugarbeets (sugar beet; [6]) | Plant response rating, Sugarbeets (sugar beet; [7]) | Sugarbeets plant response rating (sugar beet; [9]) | Rice plant response rating (rice; [3]) | Rice plant response rating (rice; Rate 125 g/ha, Postemergence section (flood test species), scale 0 to 10, 0 no effect, 10 complete control) | Rice plant response rating (rice; Rate 250 g/ha, headed Pre-emergence (flood test species), scale 0 to 10 (0 no effect, 10 complete control)) | Plant response rating, Rice (rice; Rate 500 g/ha, headed Pre-emergence (flood test species), scale 0 to 10 (0 no effect, 10 complete control)) | Rice plant response rating (rice; Rate 1000 g/ha, Pre-emergence (as headed), scale 0 to 10) | Rice plant response rating (rice; Rate 2000 g/ha, Pre-emergence (as headed), scale 0 to 10) | Rice plant response rating (rice; flood test, listed under Postemergence, Rate 250 g/ha, scale 0 to 10, 0 no effect, 10 complete control)
5: Sugarbeets plant response rating (sugar beet; [8])
9: Plant response rating, Crabgrass (crabgrass; [6]) | Plant response rating, Crabgrass (crabgrass; [7])
2: Rice plant response rating (rice; Rate 500 g/ha, Postemergence section of Table B, 0 to 10 scale (0 no effect, 10 complete control))
100: Plant response rating, Bermudagrass (bermuda-grass) | Plant response rating, Com. groundsel (common groundsel) | Plant response rating, Goosegrass (goosegrass)
3: Crabgrass plant response rating (crabgrass; [3]) | Crabgrass plant response rating (crabgrass; [4]) | Crabgrass plant response rating (crabgrass; [9])
10: Crabgrass plant response rating (crabgrass; [8])

CC(C)N(C(=O)n1oc(=O)n(C2CC2)c1=O)c1ccc(F)cc1F [Compound 299]
8: Corn plant response rating (corn; [7]) | Corn plant response rating (corn; [12]) | Sugarbeets plant response rating (0 to 10 scale) (sugar beet; Preemergence, Rate 125 g/ha)
100: Plant response rating, Blackgrass (blackgrass; Rate 250 g/ha, 0 to 100 scale) | Plant response rating, Green foxtail (green foxtail; [16]) | Plant response rating, Green foxtail (green foxtail; Rate 250 g/ha, 0 to 100 scale)
50: Plant response rating, Wheat (winter) (winter wheat [1]; [16]) | Plant response rating, Barley (winter) (winter barley; Rate 250 g/ha, 0 to 100 scale, 0 no effect, 100 complete control)
9: Sugarbeets plant response rating (sugar beet; [7]) | Crabgrass plant response rating (0 to 10 scale) (crabgrass; Preemergence, Rate 125 g/ha) | Crabgrass plant response rating (crabgrass; [7]) | Crabgrass plant response rating (crabgrass; [12])
65: Plant response rating, Wheat (winter) (winter wheat [1]; Rate 250 g/ha, 0 to 100 scale) | Plant response rating, Wild oat (wild oat; [16])
10: Sugarbeets plant response rating (sugar beet; [12])
85: Plant response rating, I. Ryegrass (Italian ryegrass; Rate 250 g/ha, 0 to 100 scale)
3: Plant response rating, Corn (corn; [15]) | Sugarbeets plant response rating (sugar beet; [11]) | Sugarbeets plant response rating (sugar beet; [14]) | Crabgrass plant response rating (crabgrass; [14])
6: Crabgrass plant response rating (crabgrass; [11])
40: Plant response rating, Barley (winter) (winter barley; [16])
70: Plant response rating, I. Ryegrass (Italian ryegrass; [16]) | Plant response rating, Wheat (winter) (winter wheat [2]; Rate 250 g/ha, 0 to 100 scale, 0 is no effect, 100 is complete control) | Plant response rating, Wild oat (wild oat; Rate 250 g/ha, 0 to 100 scale)
2: Sugarbeets plant response rating (sugar beet; [13])
60: Plant response rating, Blackgrass (blackgrass; [16]) | Plant response rating, Wheat (winter) (winter wheat [2]; [17])
4: Corn plant response rating (corn; Rate 500 g/ha, Postemergence, scale 0 to 10, 0 no effect, 10 complete control) | Plant response rating, Sugarbeets (sugar beet; [15]) | Plant response rating, Crabgrass (crabgrass; [15])
0: Corn plant response rating (corn; [11]) | Corn plant response rating (0 to 10 scale) (corn; Preemergence, Rate 125 g/ha) | Corn plant response rating (corn; [13]) | Corn plant response rating (corn; [14]) | Crabgrass plant response rating (crabgrass; [13]) | Rice plant response rating (rice; [18]) | Rice plant response rating (rice; [19]) | Rice plant response rating (rice; [20]) | Rice plant response rating (rice; Rate 500 g/ha, Pre-emergence, flood test species, scale 0 to 10 (0 no effect, 10 complete control))

CC(Cl)=CCn1c(=O)on(C(=O)N(c2ccc(F)cc2)C(C)C)c1=O [Compound 285]
50: Plant response rating, Wheat (winter) (winter wheat [1]; [25])
25: Plant response rating, Wheat (winter) (winter wheat [1]; [24])
7: Plant response rating, Crabgrass (crabgrass; [15])
20: Plant response rating, I. Ryegrass (Italian ryegrass; [16]) | Plant response rating, Blackgrass (blackgrass; [16]) | Plant response rating, Green foxtail (green foxtail; [16]) | Plant response rating, Wheat (winter) (winter wheat [2]; [17]) | Wheat (winter) plant response rating (winter wheat [2]; Rate 250 g/ha, 0 to 100 scale where 0 is no effect and 100 is complete control) | Plant response rating, Wild oat (wild oat; [24]) | Plant response rating, Barley (winter) (winter barley; [25])
0: Corn plant response rating (corn; [21]) | Corn plant response rating (corn; [11]) | Corn plant response rating (corn; [7]) | Corn plant response rating (corn; [22]) | Corn plant response rating (corn; [13]) | Corn plant response rating (corn; [14]) | Corn plant response rating (corn; [23]) | Plant response rating, Corn (corn; [15]) | Sugarbeets plant response rating (sugar beet; [21]) | Sugarbeets plant response rating (sugar beet; [11]) | Sugarbeets plant response rating (sugar beet; [7]) | Sugarbeets plant response rating (sugar beet; [13]) | Sugarbeets plant response rating (sugar beet; [23]) | Crabgrass plant response rating (crabgrass; [21]) | Crabgrass plant response rating (crabgrass; [22]) | Crabgrass plant response rating (crabgrass; [13]) | Rice plant response rating (rice; Rate 31 g/ha, Pre-emergence section (flood test species), scale 0 to 10) | Rice plant response rating (rice; [18]) | Rice plant response rating (rice; [19]) | Rice plant response rating (rice; [20]) | Plant response rating, Barley (winter) (winter barley; [16])
30: Plant response rating, Wheat (winter) (winter wheat [1]; [16]) | Plant response rating, Wheat (winter) (winter wheat [2]; Rate 1000 g/ha, 0 to 100 scale where 0 is no effect and 100 is complete control)
10: Plant response rating, Wild oat (wild oat; [16]) | Plant response rating, Barley (winter) (winter barley; [24])
4: Crabgrass plant response rating (crabgrass; [11])
8: Crabgrass plant response rating (crabgrass; [7]) | Crabgrass plant response rating (crabgrass; [23])
3: Plant response rating, Sugarbeets (sugar beet; [15]) | Crabgrass plant response rating (crabgrass; [14])
65: Plant response rating, Green foxtail (green foxtail; [25])
55: Plant response rating, Blackgrass (blackgrass; [24])
70: Plant response rating, I. Ryegrass (Italian ryegrass; [24]) | Plant response rating, I. Ryegrass (Italian ryegrass; [25]) | Plant response rating, Blackgrass (blackgrass; [25])
2: Sugarbeets plant response rating (sugar beet; [14])
40: Plant response rating, Wheat (winter) (winter wheat [2]; Rate 500 g/ha, 0 to 100 scale, 0 is no effect, 100 is complete control) | Plant response rating, Wild oat (wild oat; [25])
60: Plant response rating, Green foxtail (green foxtail; [24])
